Measured values: patent US5380759A, “Methyl N-[6-(3,4,5-trimethoxybenzloxy)imidazo[1,2-b]pyridazin-2-zyl]carbamate used to treat leukemia” (priority 1987, dated 1995)

Legend:
[1] = tested on: B16; assay: In vivo activity against murine tumour B16; parameters: species or system mouse
Description: (§1) CD2-F1 mice, of the same sex, weighing within a 3 gram range surrounding 20 g, are used for this test. Control and test animals are injected intraperitoneally with a suspension of 10^6 viable P388/O tumour cells on day 0. In each test several dose levels which bracket the LD20 for the compound are evaluated; each dose level group contains 6 animals. The test compounds are prepared either in physiologic saline containing 0.05% Tween 80 or distilled water containing 5% dextrose and are administered intraperitoneally on days 1,5 and 9 relative to tumour implant. Doses are on a mg/kg basis according to individual animals' body weights. The day of death for each animal is recorded and the median day of death identified for each group. The difference between the median survival time for treated and control groups is expressed as a percentage increase in life span (% ILS).
G. In vivo activity of the compound of Example 1 against murine tumours
Using a similar procedure to the Lymphocytic Leukaemia P388/O test the compound of Example 1 was evaluated against the murine tumours B16, L1210 and M5076. A suspension of 10^6 tumour cells is implanted intraperitoneally into control and test animals on day zero. B16 tumour cells are administered intraperitoneally as a 1:10 Brei of cells on day zero. […] The day of death for each animal is recorded and the %ILS (percentage increase in life-span) calculated.

[2] = tested on: P388/AMSA; assay: In vivo activity against drug resistant tumour P388/AMSA; parameters: species or system mouse; settings: optimum dose 5.0 mg/kg
[3] = tested on: P388/Cis--Pt; assay: In vivo activity against drug resistant tumour P388/Cis-Pt; parameters: species or system mouse; settings: optimum dose 10.0 mg/kg
[4] = tested on: P388/O tumour; assay: Lymphocytic leukaemia P388/O test; format: in vivo, mouse; settings: 10 mg/kg i.p. days 1, 5 and 9
Description: C. Lymphocytic Leukemia P388/O Test
as §1

[5] = tested on: A549 human lung carcinoma cells; assay: In vitro activity against human tumour cell line A549 (proliferation); format: cell-based; settings: A549, 96 h, MTT, read-out: IC50
Description: Cells from the human tumour cell lines DLD-1, HCT-116, WiDr and A549 are exposed to serially diluted concentrations of test compounds over a 96 hour period in culture. The ability of such cells to proliferate over the test period is determined.
Cells in log growth are plated into 96 well multiwell tissue culture dishes in 100 μl/well of RPMI 1640 culture medium supplemented with 10% foetal calf serum, antibiotics and test compound. All compounds are formulated initially at appropriate concentrations in DMSO, the final concentrations in this solvent being twenty times that required in the plate. A final 1 in 10 dilution in complete medium is then made before adding 100 μl to each well of the plate. All compounds are evaluated at concentrations ranging serially in four fold decrements from a top concentration some four fold greater than that already known to inhibit the proliferation of cells from the mouse lymphoid neoplasm, P388D1 by about 80 to 90 percent in a primary proliferative assay.
After 96 hours the proliferation of cells exposed to test compound is compared with control untreated cells by one of two methods:
b) 20 μl of MTT (5 mg/ml in PBS) is added to each well. After an incubation period of 4 hours the medium from each well is aspirated and replaced with 200 μl DMSO to dissolve the formazan crystals formed. Absorbances are read by an ELISA plate spectrophotometer at a wavelength of 540 nm. The IC50 is defined as that concentration of drug which decreases absorbance to 50% of that in control (drug-free) cultures. This method is used for the WiDr, HCT-116 and A549 cell lines.

[6] = tested on: P388/CPA; assay: In vivo activity against drug resistant tumour P388/CPA; parameters: species or system mouse; settings: optimum dose 12.5 mg/kg
[7] = tested on: strains of P388; assay: In vivo activity against strains of P388 resistant to major clinically used anti-tumour agents; parameters: species or system mouse; settings: resistant to cyclophosphamide, methotrexate, actinomycin D, vincristine, adriamycin, 5-fluorouracil, cis-platinum, bis-chloronitrosourea and amsacrine
Description: as §1
E. Activity Against Drug-Resistant Tumours
Using a similar procedure to the Lymphocytic Leukaemia P388/O test, the compound of Example 1 was evaluated against P388/O tumours which had been made resistant to the following standard, clinically used anti-tumour agents: […]

Compound: COC(=O)Nc1cn2nc(OCc3cc(OC)c(OC)c(OC)c3)ccc2n1 [Example 1, Methyl N-[6-(3,4,5-trimethoxybenzyloxy)imidazo[1,2-b]pyridazin-2-yl]carbamate]
- Mean % ILS (±SEM) ([1]; 5 mg/kg i.p. days 1, 5 and 9, 3 expts): 69 (±4) %
- activity in vivo against B16 melanoma ([1]; in words): good activity
- 60 Day Survivors ([2]; (day 31)): 4/6
- % ILS [2]: +134%
- 60 Day Survivors [3]: 1/6
- % ILS [3]: +50%
- 30 Day survivors [4]: 6/6
- 60 Day Survivors [4]: 2/6
- ILS at 10 mg/kg ([4]; Mus musculus, P388, ip): 300%
- IC50 [5]: 24 nM
- 60 Day Survivors [6]: 1/6
- % ILS [6]: +150%
- activity in vivo against resistant strains of P388 [7]: good activity in vivo
